The source of these data is patent US20140314904A1, “PRE-SLAUGHTER DIET INCLUDING METHIONINE” (ADISSEO FRANCE S.A.S., priority 2011, published 2014).

The structures appear in SMILES notation.

Holding throughout (format): in vivo, pig
Experiment [1] deals with slaughter pigs. Kind of experiment: Warner-Bratzler shear force (WBSF), instrumental hardness. To be noted: 7 days at 2° C., LS mean ± SEM. Here is the method:
In Example 1 twenty-one pigs were randomly assigned to one of three feeding groups (n=7). The control group received a standardized diet only. The DLM and HMTBA groups received the standardized diet plus a high-methionine supplement (either DLM (i.e. […] At 48 h post mortem, 3 cm thick pork chops were either vacuum packed or sealed in a modified atmosphere (MA; 80% O2) and stored for an additional 7 days at 2° C. Instrumental hardness was measured using the Warner-Bratzler shear force (WBSF; Newton) method. Protein oxidation was measured as the loss of free thiol groups in proteins (nmol thiol per mg protein) using Ellman's reagent. Lipid oxidation was measured as the increase in 2-thiobarbituric acid reactive substances (TBARS; mg malondialdehyde per kg meat). Twenty-one slaughter pigs ([Yorkshire×Swedish Landrace]×Hampshire) were raised on a commercial diet. Pigs were randomly assigned to one of three groups (n=7). […] Pork chops were cut perpendicular to the long axis of each LD muscle. Six 3 cm thick pork chops was sliced from each LD. Three were vacuum packed and three were packed in a high-oxygen modified atmosphere. The chops were placed in plastic trays ([…]-43A white/PS; 195×144×43 mm in dimension; Frch Plast, Denmark) and placed in vacuum bags (EM-628862; […] The ambient air was removed from all vacuum bags using a vacuum machine (type, manufacturer, country). […] (until 9 days post mortem). The gas composition was checked (CheckMate 9900, PBI Dansensor, Denmark) before packaging and again prior to opening, at the end of the simulated display period in order to check for leakage. The oxygen-enriched environment was well maintained (83.4%) throughout the display period for all MA packages. Instrumental hardness was measured using the Warner-Bratzler shear force (WBSF) method. In short, at the end of the display period fresh samples were heated in a water bath in an oven (type, manufacturer, country). The temperature rise was monitored for one sample and the remaining samples were given the time to reach an internal temperature of 75° C. plus five minutes. The samples were cooled down before cores of 1 cm×1 cm×2.5 cm were excised for shear force analysis.

Experiment [2] deals with slaughter pigs. Description: Instrumental meat colour (CIE L*a*b*), Example 1. To be noted: LS mean ± SEM.
Experiment [3] deals with pigs. Kind of experiment: Shear force (maximum load) after storage, Example 2. To be noted: 9 days post mortem, P < 0.02. Here is the method:
(§1) The pigs were slaughtered at a commercial slaughter house in Sweden after a resting time of 5 h. At 45 minutes post mortem, pH (Knick portamess 751) and temperature (digital thermometer, Weber) were measured in the M. longissiumus dorsi at the level of the 10th rib. At 48 h post mortem, the entire loins were dissected from the carcasses and transported to the University of Copenhagen for further measurements. Ultimate pH was measured, as well as colour by Minolta L*a*b*. Dry matter content was determined by drying muscle samples at 105° C. for 24 h. Slices of 3 cm thickness were cut, measured and vacuum packed before being stored for a further 7 days at 2° C. At the end of the storage period samples were heated to an internal temperature of 75° C. After being cooled down, samples were stored cold at 2° C. until they were cut into slabs of 1 cm×1 cm×2.5 cm size for shear force measurement. For each animal, 8 specimens were measured and the mean maximum load was used for further analysis.

The test system of experiment [4] is L. dorsi muscle of the pigs. Description: sEMG peak-to-peak amplitude of L. dorsi muscle. To be noted: 1 weeks dietary supplementation. From the text:
This study used both a single and a double differential electrode configuration, with electrodes ([…] & […]; Blue Sensor, Medicotest […], Denmark) configured as described previously by Harrison et al. (Harrison, […]. Molsted, & E. M. Bartels. The uremic environment and muscle dysfunction in man and rat. Nephron. Vol 103: 33-42, 2006). Surface electromyography recordings were taken via an ML 132 amplifier connected to a ML780 PowerLab/[…] converter (AD Instruments, Chalgrove, Oxfordshire, UK) with a further connection to a MacBook Air with Chart v. 3.6.3/s Software, Peak Parameters and Spike Histogram extensions. […] Sampling speed was set to 40,000 per second. Differential recordings of sEMG signals were made via surface electrodes from the L. dorsi muscle as previously described by Andersen et al. (2008, Andersen […], Guy J H, Edwards S A & Harrison A P, Postnatal changes in electromyographic signals during piglet growth, and in relation to muscle fibre types. […] In brief, a bipolar differential electrode configuration, with disposable Ag-AgCl recording electromyography electrodes was attached to the exposed skin surface above the L. dorsi muscle, with a set inter-electrode distance of 16-19 mm (Andersen et al., 2008). […] The recorded sEMG signal was assessed in terms of peak-to-peak amplitude (mV) using Chart analysis software (AD Instruments, Chalgrove, Oxfordshire, UK).

For experiment [5], the system named is pigs. Kind of experiment: Colour by Minolta L*a*b*, Example 2. To be noted: Laboratory, 2 days post mortem. Here is the method:
as §1

Experiment [6] has as its system pigs. Description: Dry matter content of muscle samples, Example 2. To be noted: Laboratory, 2 days post mortem. Here is the method: as §1
[7] abbreviates: MAP 80% O2/20% CO2 (9 days post mortem).

In the case of `CSCCC(N)C(=O)O` (racemic) [DLM, DL-methionine], the “Instrumental hardness, WBSF values” with slaughter pigs [1] (MAP (80% O2 + 20% CO2)) is reported as 38.58 ± 3.65 ^A, B N. The “Instrumental hardness, WBSF values” in the experiment on slaughter pigs [1] (Vacuum) was 28.80 ± 3.65 ^D N. In addition, the “Light reflection (L*)” value in the experiment on slaughter pigs [2] (setting [7]) is reported as 59.19 ± 1.30 ^A. In the experiment with slaughter pigs [2] (Vacuum (9 days post mortem)), the “Light reflection (L*)” value was 57.83 ± 1.25 ^A, B; the “Redness (a*)” value is listed as 8.21 ± 0.58 ^A, B; the Saturation index is recorded as 11.55 ± 0.67 ^A, B, C; the “Yellowness (b*)” value is 8.11 ± 0.46 ^A, B. Also, the “Maximum Load” value with pigs [3] is on record as 34 N. Also, the “Change in sEMG peak-to-peak amplitude between pre and post groups” value in experiment [4] (60, 150, 200 Hz) was “clear improvement”. In addition, in the experiment on pigs [5], the “Colour Minolta L*” value was determined as 55.75 units, the “Colour Minolta a*” value was 6.69 units and the “Colour Minolta b*” value is reported as 2.92 units. For the same compound, the “Dry Matter” value in the experiment with pigs [6] worked out at 26%.
As for `CSCCC(O)C(=O)O` (racemic) [HMTBA, 2-hydroxy-4-(methylthio) butanoic acid], the “Instrumental hardness, WBSF values” in the experiment with slaughter pigs [1] (MAP (80% O2 + 20% CO2)) was 43.64 ± 3.65 ^A, B N. In addition, in the experiment on slaughter pigs [1] (Vacuum), the “Instrumental hardness, WBSF values” is given as 30.55 ± 3.65 ^C, D N. Moreover, the “Light reflection (L*)” value in the experiment with slaughter pigs [2] (setting [7]) was 58.73 ± 1.30 ^A, B. Moreover, in the experiment with slaughter pigs [2] (Vacuum (9 days post mortem)), the “Light reflection (L*)” value is 55.34 ± 1.25 ^A, B; the “Redness (a*)” value is listed as 8.86 ± 0.58 ^A, C; the Saturation index is listed as 12.22 ± 0.67 ^A; the “Yellowness (b*)” value is 8.39 ± 0.46 ^A. For the same compound, the “Maximum Load” value in the experiment on pigs [3] stood at 37 N. The “Improvement in muscle growth/performance (sEMG peak-to-peak amplitude) cf CONT (untreated) levels” value in experiment [4] is on record as ~100%. In the experiment on pigs [5], the “Colour Minolta L*” value is 56.89 units, the “Colour Minolta a*” value was 7.58 units and the “Colour Minolta b*” value turned out to be 3.71 units. Further, the “Dry Matter” value with pigs [6] was 29%.
